Where a SMILES comes first, the peptide text is derived from it. The star is where a group is joined. Myristoyl = CCCCCCCCCCCCCC(=O)*
Key:
[1] = system: acetylated PD-L1 and p300; test: Colocalization (PCC(r)) of acetylated PD-L1 and p300 in MDA-MB-231 cells; format: cell-based, human; details: 50 μm
Experimental: (§1) The effect of P1, P2, P3 and P4 (synthesized in accordance with Example 5) on p300 localization was examined using confocal laser scanning microscopy. […] Cover slips were mounted on glass microscope slides with ProLong Diamond Antifade reagent (Life Technologies). Protein targets were localized by confocal laser scanning microscopy as described above. TNFI and PCC(r) were calculated using ImageJ software as previously described.

[2] = system: DMNTI; test: Immunofluorescence of DMNTI in MDA-MB-231 cells; format: cell-based, human; details: 50 μM, 72 hours
Experimental: (§2) Cells were treated with 50 μM P1, P2, P3 or P4 (synthesized in accordance with Example 5) or vehicle (water) for 72 hours. […] Confocal laser scanning microscopy was used to measure the […] and TCFI as described above. At least 20 individual cells were analyzed per sample.

[3] = system: MDA-MB-231 cells; format: cell-based, human; details: for COI (Cell Count) / COI, Live Single Cells (Cell Count) / COI, Single (Cell Count) / Total Cell Count: 50 μM peptide, 48 hours, n = 1;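 as to COI, Live Single Cells (Cell Count): live means Hoechst-negative events among single cells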
Text: (§3) Non-adherent cells were removed during the washing steps.

[4] = system: CD44^hiCD24^lo CSCs in MDA-MB-231 cells; test: FACS analysis of CD44^hiCD24^lo cancer stem cells in MDA-MB-231 cells treated with P1 analogues; format: cell-based, human; details: for CD44^hiCD24^lo CSCs (%) / COI, Live Single CD44^hiCD24^lo CSCs (Cell Count): n = 1
Experimental: Analogues of P1 (Table 6) were designed and synthesized in accordance with the procedure of Example 5. The ability of these analogues to inhibit cancer stem cells was determined using FACS analysis on MDA-MB-231 cells, which constitutively contain approximately 90% CD44^hiCD24^lo cancer stem cells, treated with the peptides.
as §3

[5] = molecular target: T1, p300 (Homo sapiens, UniProt Q09472); test: Immunofluorescence of p300 localization in MDA-MB-231 cells; format: cell-based; details: 50 μM
T1 construct: endogenous in cells; host or cells: MDA-MB-231
T1 sequence (Q09472 whole entry): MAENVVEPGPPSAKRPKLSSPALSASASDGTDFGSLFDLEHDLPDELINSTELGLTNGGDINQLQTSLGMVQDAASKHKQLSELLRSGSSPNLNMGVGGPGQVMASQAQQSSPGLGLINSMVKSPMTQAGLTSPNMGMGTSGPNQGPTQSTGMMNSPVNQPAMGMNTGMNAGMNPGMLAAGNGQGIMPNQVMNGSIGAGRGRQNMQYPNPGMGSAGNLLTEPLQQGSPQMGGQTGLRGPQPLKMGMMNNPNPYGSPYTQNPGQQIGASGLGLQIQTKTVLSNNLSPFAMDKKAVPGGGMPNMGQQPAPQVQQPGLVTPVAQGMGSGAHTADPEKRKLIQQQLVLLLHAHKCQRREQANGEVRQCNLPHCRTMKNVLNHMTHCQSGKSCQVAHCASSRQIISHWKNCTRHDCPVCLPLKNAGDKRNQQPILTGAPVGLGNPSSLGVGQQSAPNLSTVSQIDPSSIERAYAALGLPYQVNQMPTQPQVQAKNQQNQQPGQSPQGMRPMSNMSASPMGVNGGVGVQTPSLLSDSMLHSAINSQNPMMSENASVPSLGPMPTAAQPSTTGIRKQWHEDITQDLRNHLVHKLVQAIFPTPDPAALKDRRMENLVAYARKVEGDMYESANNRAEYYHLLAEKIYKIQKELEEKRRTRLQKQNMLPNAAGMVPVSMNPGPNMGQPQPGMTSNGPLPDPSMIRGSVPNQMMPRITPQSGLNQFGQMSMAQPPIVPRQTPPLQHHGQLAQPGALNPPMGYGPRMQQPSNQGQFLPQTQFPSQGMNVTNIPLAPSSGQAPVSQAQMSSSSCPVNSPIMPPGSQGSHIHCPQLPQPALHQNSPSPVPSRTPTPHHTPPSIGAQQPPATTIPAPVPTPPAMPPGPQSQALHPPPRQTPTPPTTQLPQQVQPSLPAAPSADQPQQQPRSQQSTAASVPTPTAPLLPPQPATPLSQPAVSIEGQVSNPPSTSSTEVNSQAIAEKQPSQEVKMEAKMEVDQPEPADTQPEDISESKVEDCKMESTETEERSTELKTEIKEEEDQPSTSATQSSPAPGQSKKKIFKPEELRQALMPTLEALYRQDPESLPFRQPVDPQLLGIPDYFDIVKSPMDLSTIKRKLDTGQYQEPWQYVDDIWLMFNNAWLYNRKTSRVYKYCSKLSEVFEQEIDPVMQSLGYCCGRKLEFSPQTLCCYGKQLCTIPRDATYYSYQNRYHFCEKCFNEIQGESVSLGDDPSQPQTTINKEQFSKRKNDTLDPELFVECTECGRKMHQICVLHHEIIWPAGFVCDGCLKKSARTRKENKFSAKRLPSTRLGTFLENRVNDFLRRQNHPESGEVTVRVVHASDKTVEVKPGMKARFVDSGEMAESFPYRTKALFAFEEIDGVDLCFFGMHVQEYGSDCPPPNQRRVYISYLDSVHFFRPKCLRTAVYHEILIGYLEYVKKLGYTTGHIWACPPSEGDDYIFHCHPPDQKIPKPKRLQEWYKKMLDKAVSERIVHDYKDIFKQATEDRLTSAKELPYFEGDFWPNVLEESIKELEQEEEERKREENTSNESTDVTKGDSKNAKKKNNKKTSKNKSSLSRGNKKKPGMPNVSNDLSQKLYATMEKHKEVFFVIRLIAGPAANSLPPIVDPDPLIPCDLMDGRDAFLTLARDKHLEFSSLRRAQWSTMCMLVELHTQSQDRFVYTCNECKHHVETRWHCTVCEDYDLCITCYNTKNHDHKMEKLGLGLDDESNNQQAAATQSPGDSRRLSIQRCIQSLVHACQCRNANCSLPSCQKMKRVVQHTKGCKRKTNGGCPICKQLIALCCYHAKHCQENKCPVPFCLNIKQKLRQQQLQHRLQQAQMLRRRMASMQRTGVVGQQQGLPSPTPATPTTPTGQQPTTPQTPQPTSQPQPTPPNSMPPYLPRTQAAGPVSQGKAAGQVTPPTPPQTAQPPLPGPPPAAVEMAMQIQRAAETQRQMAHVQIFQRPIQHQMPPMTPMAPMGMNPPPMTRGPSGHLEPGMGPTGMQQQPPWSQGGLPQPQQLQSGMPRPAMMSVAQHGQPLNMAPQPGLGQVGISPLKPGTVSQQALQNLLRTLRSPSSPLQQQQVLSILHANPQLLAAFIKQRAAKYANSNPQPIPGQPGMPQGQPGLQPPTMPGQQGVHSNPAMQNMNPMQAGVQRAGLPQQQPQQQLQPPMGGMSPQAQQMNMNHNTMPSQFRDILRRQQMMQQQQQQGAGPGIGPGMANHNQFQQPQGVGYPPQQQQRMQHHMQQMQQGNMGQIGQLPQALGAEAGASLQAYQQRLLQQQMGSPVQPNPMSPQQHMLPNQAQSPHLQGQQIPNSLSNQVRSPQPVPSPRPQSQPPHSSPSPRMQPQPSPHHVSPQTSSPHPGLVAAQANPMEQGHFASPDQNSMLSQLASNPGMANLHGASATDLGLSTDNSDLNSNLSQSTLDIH
Experimental: as §1

[6] = system: EHTM2; test: Immunofluorescence of EHTM2 in MDA-MB-231 cells; format: cell-based, human; details: 50 μM, 72 hours
Experimental: as §2

[7] = system: PD-L1; test: Immunofluorescence (confocal) of PD-L1 in MDA-MB-231 cells, Example 6; format: cell-based, human; details: 50 μM, 72 hours
Experimental: (§4) Confocal laser scanning microscopy was employed to investigate the effect of P1, P2 and P3 (synthesized in accordance with Example 5) on the nuclear expression of PD-L1 and acetylated PD-L1 (PDL1-Ac) (FIG. 9).
(§5) 1×10^4 MDA-MB-231 cells were seeded onto coverslips in 12 well plates with DMEM media overnight. Cells were treated with 50 μM P1, P2, P3 or P4 or vehicle (water) for 72 hours. Treated cells were fixed with 3.7% formaldehyde, and then permeabilised by incubating with 1% Triton X-100 for 20 min. Cells were then probed with a rabbit anti-PD-L1 antibody (Santa Cruz Biotechnology) or rabbit anti-acetylated PD-L1 (generated as described above) and visualized with a donkey anti-rabbit AF 488. Cover slips were mounted on glass microscope slides with ProLong Diamond Antifade reagent (Life Technologies). Protein targets were localized using confocal laser scanning microscopy. Single 0.5 μm sections were obtained using a Leica DMI8 microscope using 100× oil immersion lens running LAX software. The final image was obtained by averaging four sequential images of the same section. Digital images were analyzed using ImageJ software as described above.

[8] = system: SETDB1; test: Immunofluorescence of SETDB1 in MDA-MB-231 cells; format: cell-based, human; details: 50 μM, 72 hours
Experimental: as §2

[9] = system: PD-L1 acetylated at lysine 263; test: Immunofluorescence (confocal) of acetylated PD-L1 in MDA-MB-231 cells, Example 6; format: cell-based, human; details: 50 μM, 72 hours
Experimental: as §4, §5

[10] = system: PD-L1; test: PD-L1 in MDA-MB-231 mouse xenografts treated with abraxane or docetaxel; format: in vivo; details: 35 days, compared with untreated cells
Experimental: The expression of PD-L1 in mouse MDA-MB-231 xenografts treated for 35 days with abraxane (60 mg/kg) or docetaxel (10 mg/kg) was investigated using confocal laser scanning microscopy.
Five-week-old female nude mice were acquired and allowed to acclimatize for one week in the animal facility before experimentation. All experimental procedures were accessed and approved by The Australian National University Animal Experimental Ethics Committee (Ethics ID A2014/30). MDA-MB-231 human breast carcinoma cells were injected subcutaneously into the right mammary gland (2×10^6 cells in 1:1 PBS and BD Matrigel Matrix). Tumors were measured using external calipers and calculated using the modified ellipsoidal formula: […], where a=longest diameter and b=shortest diameter. Tumors were allowed to grow to around 50 mm^3 before commencing treatments (around 15 days). Abraxane (60 mg/kg) or Docetaxel (10 mg/kg) were administered by i.p. injection. Tumors were excised and collected in DMEM supplemented with 2.5% FCS. […] Digested tumors were spun and resuspended in DMEM, 2.5% FCS before being passed through a […] filter and PD-L1 nuclear localization was assessed using immunofluorescence microscopy as described supra.

[11] = system: CD44^hiCD24^lo CSCs in MCF7 cells; test: FACS analysis of CD44^hiCD24^lo CSCs in MCF7 cells; format: cell-based, human; details: 50 μM peptide, 48 hours
Experimental: (§6) P1 Analogues were synthesized in accordance with the procedure of Example 5. 4×10^4 MDA-MB-231 cells or 1×10^4 induced or non-induced MCF7 cells were seeded in a 12 well plate with 1 mL complete media overnight. Induced MCF7 cells were prepared by stimulating cells with PMA/TGF-β and incubating for 12 hours. Cells were treated with 50 μM test peptide (dissolved in water) for 48 hours. Cells were then washed twice with 1 mL PBS and harvested by trypsinisation. Non-adherent cells were removed during the washing steps. Adherent cells were collected, and were subsequently stained with anti-human CD44, CD24 and Hoechst 33342 antibodies on ice for 30 mins. FACS was performed on BD FACS LSRII to measure the percentage of CD44^hiCD24^lo CSCs by dividing CD44^hiCD24^lo events by total live cell counts (Hoechst negative population) (as described in Fillmore and Kuperwasser (2007) Breast Cancer Res, 9: 303). The percentage of viable cells was calculated by dividing total live cell events by total single cells as described previously (Siemann and Keng (1986), Cancer Res, 46: 3556-3559).

[12] = system: induced MCF7 cells; test: FACS CSC inhibition in induced MCF7 cells; format: cell-based, human; details: induced MCF7 cells (PMA/TGF-β), 50 μM peptide, 48 hours
Experimental: as §6

[13] = system: MCF7 cells; details: MCF7 cells, 50 μM peptide, 48 hours
Experimental: as §6

Structure (SMILES): CCCCCCCCCCCCCC(=O)N[C@@H](Cc1ccccc1)C(=O)N[C@@H](CCCNC(=N)N)C(=O)N[C@@H](CC(C)C)C(=O)N[C@@H](CCCNC(=N)N)C(=O)N[C@@H](CCCCN)C(=O)NCC(=O)N[C@@H](CCCNC(=N)N)C(=O)N[C@@H](CCSC)C(=O)N[C@@H](CCSC)C(=O)N[C@@H](CC(=O)O)C(=O)N[C@H](C(=O)N[C@@H](CCCCN)C(=O)N[C@@H](CCCCN)C(N)=O)C(C)C [Peptide P4, Myristoyl-FRLRKGRMMDVKK-NH2] (Myristoyl-FRLRKGRMMDVKK-NH2)
- colocalization of acetylated PD-L1 and p300 [1]: no effect
- expression / nuclear localization of DMNTI [2]: inhibited
- COI (Cell Count) [3]: 4910
- COI, Live Single Cells (Cell Count) [3]: 3777
- COI, Single (Cell Count) [3]: 3903
- Total Cell Count [3]: 7923
- CD44^hiCD24^lo CSCs (%) ([4]; 50 μM peptide, 48 hours): 87.66%
- COI, Live Single CD44^hiCD24^lo CSCs (Cell Count) ([4]; 50 μM peptide, 48 hours): 3311
- p300 nuclear expression [5]: slightly decreased
- expression / localization of EHTM2 [6]: did not have a significant effect
- localization of PD-L1 [7]: no effect
- expression / nuclear localization of SETDB1 [8]: inhibited
- localization of acetylated PD-L1 [9]: no effect

Structure (SMILES): CC(=O)O[C@@]12CO[C@@H]1C[C@H](O)[C@@]1(C)C(=O)[C@H](O)C3=C(C)[C@@H](OC(=O)[C@H](O)[C@@H](NC(=O)OC(C)(C)C)c4ccccc4)C[C@@](O)([C@@H](OC(=O)c4ccccc4)[C@H]21)C3(C)C [docetaxel]
- PD-L1 in the nucleus of surviving, resistant xenograft cells [10]: higher levels of PD-L1 in the nucleus

Structure (SMILES): CCCCCCCCCCCCCC(=O)N[C@H](C(=O)N[C@@H](Cc1ccccc1)C(=O)N[C@H](C(=O)N[C@@H](Cc1ccccc1)C(=O)N[C@@H](CCCNC(=N)N)C(=O)N[C@@H](CC(C)C)C(=O)N[C@@H](CCCNC(=N)N)C(=O)N[C@@H](C)C(=O)NCC(=O)N[C@@H](CCCNC(=N)N)C(=O)N[C@@H](CCSC)C(=O)N[C@@H](CCSC)C(=O)N[C@@H](CC(=O)O)C(=O)N[C@H](C(=O)N[C@@H](CCCCN)C(=O)N[C@@H](CCCCN)C(N)=O)C(C)C)[C@@H](C)CC)[C@@H](C)O [Peptide 2815309, Myristoyl-TFIFRLRAGRMMDVKK-NH2] (Myristoyl-TFIFRLRAGRMMDVKK-NH2)
- COI (Cell Count) [3]: 74
- COI, Live Single Cells (Cell Count) [3]: 1
- COI, Single (Cell Count) [3]: 71
- Total Cell Count [3]: 4158
- killing of total MDA-MB-231 cells ([3]; not only the CSCs): killed the majority of the total MDA-MB-231 cells
- Inhibition of CSCs (%) Repeat 1 ([4]; 50 μM peptide, 48 hours): 100.00%
- Inhibition of CSCs (%) Repeat 2 ([4]; 50 μM peptide, 48 hours): 100.00%
- Inhibition of CSCs (%) Repeat 3 ([4]; 50 μM peptide, 48 hours): 100.00%
- CD44^hiCD24^lo CSCs (%) ([4]; 50 μM peptide, 48 hours): 0.00%
- COI, Live Single CD44^hiCD24^lo CSCs (Cell Count) ([4]; 50 μM peptide, 48 hours): 1
- Average Inhibition of CSCs (%) ([4]; 50 μM peptide, 48 hours, n = 3): 100.00%
- CD44^hiCD24^lo CSCs (%) Repeat 1 ([4]; 50 μM peptide, 48 hours, n = 3): 0.00%
- CD44^hiCD24^lo CSCs (%) Repeat 2 ([4]; 50 μM peptide, 48 hours, n = 3): 0.00%
- CD44^hiCD24^lo CSCs (%) Repeat 3 ([4]; 50 μM peptide, 48 hours, n = 3): 0.00%
- ability to inhibit cancer stem cells (CD44^hiCD24^lo CSCs) ([4]; in words): retained the ability to inhibit cancer stem cells
- CD44^hiCD24^lo CSC % [11]: 3.35%
- COI/Single Cells/Live/CD44^hiCD24^lo CSCs Count [11]: 134
- CSC inhibition (%) [12]: 52.46%
- COI Count [13]: 5425
- COI/Single Cell Count [13]: 4124
- COI/Single Cells/Live Count [13]: 4000
- Total Count [13]: 10000

— patent US20200339691A1, “PROTEINACEOUS MOLECULES AND USES THEREFOR” (priority 2018, published 2020)
